Results taken from DBAASP.
In brackets after ≈: the same amount, converted by molar mass.

Key:
Experiment in all cases: ≥ marks a high value that may be exact or a test limit, other limits are often not marked, values filed in µg/mL are converted to µM
[1] = tested on: Acinetobacter baumannii 4-MRGN
Enterococcus faecium = tested on: Enterococcus faecium
[2] = tested on: Pseudomonas aeruginosa ATCC 27853
[3] = tested on: Staphylococcus aureus USA 300
Escherichia coli K88 = tested on: Escherichia coli K88
[4] = tested on: Escherichia coli O157:H7 CICC 21530
[5] = tested on: Lacticaseibacillus rhamnosus 1.0911
[6] = tested on: Lacticaseibacillus rhamnosus 1.0936
[7] = tested on: Lacticaseibacillus rhamnosus 1.9021
[8] = tested on: Lacticaseibacillus rhamnosus 8014
[9] = tested on: Pseudomonas aeruginosa PAO1
[10] = tested on: Salmonella enterica subsp. enterica serovar Choleraesuis CVCC 503
[11] = tested on: Salmonella enterica subsp. enterica serovar Pullorum C79-13
[12] = tested on: Salmonella enterica subsp. enterica serovar Typhimurium ATCC 14028
[13] = tested on: Staphylococcus aureus ATCC 29213
[14] = tested on: Staphylococcus aureus ATCC 43300
[15] = tested on: Staphylococcus epidermidis ATCC 12228
[16] = tested on: Streptococcus agalactiae BNCC 185941
[17] = tested on: Candida albicans ATCC 90028
Candida albicans = tested on: Candida albicans
[18] = tested on: Enterobacter cloacae NHTCC 53001
[19] = tested on: Enterococcus faecalis ATCC 29212
[20] = tested on: Escherichia coli 0112 EIEC26
[21] = tested on: Escherichia coli 0112 EIEC27
[22] = tested on: Escherichia coli 0143 EIEC7
[23] = tested on: Escherichia coli 0152 EIEC1
[24] = tested on: Escherichia coli 0164 EIEC6
[25] = tested on: Escherichia coli ATCC 25922
[26] = tested on: Escherichia coli ATCC 35218
[27] = tested on: Escherichia coli AX-054-1-3
[28] = tested on: Escherichia coli AX-100-3-1
[29] = tested on: Escherichia coli AX-109-2-3
[30] = tested on: Escherichia coli AX-128-3-3
[31] = tested on: Escherichia coli O157:H7 282
[32] = tested on: Escherichia coli O157:H7 30328
[33] = tested on: Escherichia coli O157:H7 734/94
[34] = tested on: Escherichia coli O157:H7 CB6392
[35] = tested on: Escherichia coli O26:H- CB6418
[36] = tested on: Escherichia coli O26:H11 3
[37] = tested on: Escherichia coli O6:K15:H31 536
Escherichia coli U7103 = tested on: Escherichia coli U7103
Escherichia coli U7794 = tested on: Escherichia coli U7794
Escherichia coli = tested on: Escherichia coli
[38] = tested on: Klebsiella pneumoniae KK3 9904
[39] = tested on: Proteus mirabilis ATCC 25933
[40] = tested on: Staphylococcus aureus NCTC 8325
Staphylococcus aureus = tested on: Staphylococcus aureus
[41] = tested on: Staphylococcus epidermidis RP62A

C[C@H](N)C(=O)N[C@H](C(=O)N[C@H]1CSSC[C@@H](C(=O)N[C@@H](CCCN=C(N)N)C(=O)N[C@H](C(=O)NCC(=O)N[C@@H](CCCN=C(N)N)C(=O)O)[C@@H](C)O)NC(=O)[C@H](Cc2ccc(O)cc2)NC1=O)[C@@H](C)O [ATCYCRTGR]
MIC [1]: 25 µM (≈ 25.7 µg/mL) | MIC (Enterococcus faecium): 25 µM (≈ 25.7 µg/mL) | MIC [2]: 50 µM (≈ 51.4 µg/mL) | MIC [3]: ≥ 50 µM

CC(C)C[C@H](NC(=O)[C@H](CCCCN)NC(=O)CNC(=O)[C@H](CCCCN)NC(=O)[C@H](CC(C)C)NC(=O)[C@H](Cc1c[nH]c2ccccc12)NC(=O)[C@H](CC(C)C)NC(=O)[C@H](CCCCN)NC(=O)CNC(=O)[C@H](CCCCN)NC(=O)[C@@H](N)CC(C)C)C(N)=O [LKGKLWLKGKL]
MIC (Escherichia coli K88): 8 µM (≈ 10.3 µg/mL) | MIC [4]: ≥ 64 µM | MIC [5]: ≥ 128 µM | MIC [6]: ≥ 128 µM | MIC [7]: ≥ 128 µM | MIC [8]: ≥ 128 µM | MIC [2]: 32 µM (≈ 41 µg/mL) | MIC [9]: 32 µM (≈ 41 µg/mL) | MIC [10]: ≥ 128 µM | MIC [11]: 8 µM (≈ 10.3 µg/mL) | MIC [12]: 64 µM (≈ 82.1 µg/mL) | MIC [13]: > 128 µM | MIC [14]: > 128 µM | MIC [15]: > 128 µM | MIC [16]: ≥ 128 µM

CC[C@@H](C)[C@H](N=C(O)[C@H](CCCCN)N=C(O)C(CS)N=C(O)C(C)N=C(O)[C@H](N=C(O)[C@@H](Cc1ccccc1)N=C(O)CN=C(O)[C@H](CC(C)C)N=C(O)CN=C(O)[C@H](N=C(O)[C@H](CCCCN)N=C(O)CN=C(O)[C@H](CC(C)C)N=C(O)[C@H](CC(=N)O)N=C(O)[C@H](CCCCN)N=C(O)[C@H](CC(C)C)N=C(O)[C@H](N=C(O)[C@H](CO)N=C(O)C(CC(C)C)N=C(O)[C@H](CCSC)N=C(O)[C@H](N)CO)C(C)C)C(C)C)C(C)C)C(O)=N[C@H](CC(=N)O)C(O)=N[C@H](CCCCN)C(O)=N[C@H](CCC(=N)O)C(O)=N[C@H](CS)C(=O)O (stereo not given in full) [SMLSVLKNLGKVGLGFVACKINKQC]
MIC [17]: ≥ 40 µM | MIC (Candida albicans): 70 µM (≈ 186 µg/mL) | MIC [18]: 20 µM (≈ 53 µg/mL) | MIC [19]: 20 µM (≈ 53 µg/mL) | MIC [20]: ≥ 40 µM | MIC [21]: 20 µM (≈ 53 µg/mL) | MIC [22]: 20 µM (≈ 53 µg/mL) | MIC [23]: 20 µM (≈ 53 µg/mL) | MIC [24]: 20 µM (≈ 53 µg/mL) | MIC [25]: 20 µM (≈ 53 µg/mL) | MIC [26]: 20 µM (≈ 53 µg/mL) | MIC [27]: 20 µM (≈ 53 µg/mL) | MIC [28]: 20 µM (≈ 53 µg/mL) | MIC [29]: 10 µM (≈ 26.5 µg/mL) | MIC [30]: 10 µM (≈ 26.5 µg/mL) | MIC [31]: 5 µM (≈ 13.3 µg/mL) | MIC [32]: 10 µM (≈ 26.5 µg/mL) | MIC [33]: 10 µM (≈ 26.5 µg/mL) | MIC [34]: 10 µM (≈ 26.5 µg/mL) | MIC [35]: 10 µM (≈ 26.5 µg/mL) | MIC [36]: 5 µM (≈ 13.3 µg/mL) | MIC [37]: 5 µM (≈ 13.3 µg/mL) | MIC (Escherichia coli U7103): 5 µM (≈ 13.3 µg/mL) | MIC (Escherichia coli U7794): 10 µM (≈ 26.5 µg/mL) | MIC (Escherichia coli): 2 µM (≈ 5.3 µg/mL) | MIC [38]: ≥ 40 µM | MIC [39]: ≥ 100 µM | MIC [2]: 20 µM (≈ 53 µg/mL) | MIC [40]: 20 µM (≈ 53 µg/mL) | MIC (Staphylococcus aureus): 50 µM (≈ 133 µg/mL) | MIC [41]: 20 µM (≈ 53 µg/mL)
